Patent publication US20040081964A1, “Gene and sequence variation associated with sensing carbohydrate compounds and other sweeteners” (priority 2002, published 2004)
Like-named read-outs stand apart in the source and are kept apart here.

Experiments:
[1] = tested on: mouse strains with 'B6-like' or '129-like' haplotype of Gpr98
Excerpt: (§1) Preferences for 10% ethanol for the same mouse strains were studied as described in Abstr. of the 23th RSA Meeting (June 2000, Denver, Colo.).

[2] = tested on: 129.B6-Sac congenic mice
Excerpt: as §1

[3] = tested on: mice from inbred strains with two different haplotypes of the Sac gene; settings: strain preferences known from Lush et al., cited from earlier work
[4] = strains with the 129-like haplotype of Sac, p=0.0015 vs B6-like
[5] = strains with the B6-like haplotype of Sac

Compound	preference for 10% ethanol ([1]; strains with the '129-like' haplotype, n=10 strains, p<0.05, one-tailed t-test) [%]	preference for 10% ethanol ([1]; strains with the 'B6-like' haplotype, n=14 strains) [%]	consumption of 10% ethanol solution ([2]; congenic mice homozygous for the 194-kb donor fragment from the B6 strain) [mL/day]	consumption of 10% ethanol solution ([2]; congenic mice without the donor fragment, p<0.05, one-tailed t-test) [mL/day]	sweetener preference [3, 4] [%]	sweetener preference [3, 5] [%]
CCO [ethanol]	12±2	20±4	1.50 ± 0.15	1.19 ± 0.11	–	–
O=C1NS(=O)(=O)c2ccccc21 [saccharin]	–	–	–	–	57±2	82±4
OC[C@H]1O[C@@](CO)(O[C@H]2O[C@H](CO)[C@@H](O)[C@H](O)[C@H]2O)[C@@H](O)[C@@H]1O [sucrose]	–	–	–	–	54±1	86±6
